Here are results for 18 molecules from patent publication US20240101540A1, “TARGETED PROTEIN DEGRADATION OF PARP14 FOR USE IN THERAPY” (Ribon Therapeutics, Inc., priority 2022, published 2024).

The structures appear in SMILES notation. Counter-ions that a name gives are not always drawn. Some results are limits rather than exact numbers.

One assay deals with T1, HiBiT tagged PARP14 (Homo sapiens, UniProt Q460N5).
T1 construct: engineered to contain a HiBiT tag on both alleles of the PARP14 gene; endogenous in cells; host or cells: Jurkat cells stably transfected with LgBiT (Promega), PARP14 locus edited by CRISPR/Cas9
T1 sequence (Q460N5 whole entry): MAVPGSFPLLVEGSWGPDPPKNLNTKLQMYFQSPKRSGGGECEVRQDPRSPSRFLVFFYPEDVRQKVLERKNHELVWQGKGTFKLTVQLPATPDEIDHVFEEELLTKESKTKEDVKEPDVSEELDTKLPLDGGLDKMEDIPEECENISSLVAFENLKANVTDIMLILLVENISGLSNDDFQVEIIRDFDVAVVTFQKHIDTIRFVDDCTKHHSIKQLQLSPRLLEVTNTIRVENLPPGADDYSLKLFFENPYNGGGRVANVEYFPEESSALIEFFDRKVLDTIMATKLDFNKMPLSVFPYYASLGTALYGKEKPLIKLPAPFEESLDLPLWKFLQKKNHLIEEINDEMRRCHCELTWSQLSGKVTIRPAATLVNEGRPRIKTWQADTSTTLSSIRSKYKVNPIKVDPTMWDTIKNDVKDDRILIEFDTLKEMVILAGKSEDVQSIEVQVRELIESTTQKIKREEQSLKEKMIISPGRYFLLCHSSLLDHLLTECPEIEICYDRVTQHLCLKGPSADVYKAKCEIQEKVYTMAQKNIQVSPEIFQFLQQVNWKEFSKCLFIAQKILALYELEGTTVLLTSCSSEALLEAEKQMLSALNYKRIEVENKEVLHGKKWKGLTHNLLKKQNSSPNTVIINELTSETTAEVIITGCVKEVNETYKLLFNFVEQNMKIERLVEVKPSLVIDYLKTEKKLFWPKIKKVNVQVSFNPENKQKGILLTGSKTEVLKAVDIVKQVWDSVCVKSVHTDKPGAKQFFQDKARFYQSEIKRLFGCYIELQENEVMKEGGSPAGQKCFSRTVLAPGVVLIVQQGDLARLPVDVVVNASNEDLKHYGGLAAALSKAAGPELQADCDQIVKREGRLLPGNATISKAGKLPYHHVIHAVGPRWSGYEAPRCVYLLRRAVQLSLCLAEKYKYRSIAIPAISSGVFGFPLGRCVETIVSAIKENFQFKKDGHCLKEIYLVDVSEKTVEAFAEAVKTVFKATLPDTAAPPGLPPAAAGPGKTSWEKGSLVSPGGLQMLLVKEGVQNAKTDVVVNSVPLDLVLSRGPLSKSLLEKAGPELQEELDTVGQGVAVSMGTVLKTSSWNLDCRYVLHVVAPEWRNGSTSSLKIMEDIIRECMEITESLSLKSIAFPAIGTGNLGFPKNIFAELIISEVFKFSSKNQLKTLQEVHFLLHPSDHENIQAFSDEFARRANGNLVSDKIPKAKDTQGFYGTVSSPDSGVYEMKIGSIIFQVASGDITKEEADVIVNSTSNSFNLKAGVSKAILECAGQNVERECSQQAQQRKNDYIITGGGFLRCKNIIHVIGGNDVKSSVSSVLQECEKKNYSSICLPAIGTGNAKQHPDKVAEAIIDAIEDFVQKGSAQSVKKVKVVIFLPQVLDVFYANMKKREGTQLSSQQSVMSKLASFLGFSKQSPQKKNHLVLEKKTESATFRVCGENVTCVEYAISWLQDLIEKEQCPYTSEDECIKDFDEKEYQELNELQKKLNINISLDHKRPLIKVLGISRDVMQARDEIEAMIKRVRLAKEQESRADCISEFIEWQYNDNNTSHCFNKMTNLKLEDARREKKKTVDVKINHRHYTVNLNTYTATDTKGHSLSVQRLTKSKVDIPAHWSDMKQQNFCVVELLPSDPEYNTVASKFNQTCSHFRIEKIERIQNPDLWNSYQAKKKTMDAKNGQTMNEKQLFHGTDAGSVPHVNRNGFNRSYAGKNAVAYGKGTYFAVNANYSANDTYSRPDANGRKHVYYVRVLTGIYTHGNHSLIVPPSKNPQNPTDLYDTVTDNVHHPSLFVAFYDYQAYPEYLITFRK
Description: HiBiT assay for the degradation of PARP14 (HiBiT tagged PARP14 in LgBiT expressing Jurkat cells, 2 or 24 hours). The format is cell-based. As to conditions: Assay B (Example B): HiBiT tagged PARP14 degradation in LgBiT expressing Jurkat cells. Here is the method: Jurkat cells stably transfected with LgBiT (Promega) were engineered to contain a HiBiT tag on both alleles of the PARP14 gene (Genbank Accession Number: NM_017554) via CRISPR/Cas9 editing. The HiBiT tag is an 11 amino acid tag created by Promega that associates with LgBiT protein to form the NanoLuc® tag on the C-terminus of PARP14. Clones were isolated and confirmed for the HiBiT tag via Sanger sequencing.
Degradation of PARP14 protein was assessed by measuring the luminescence of the HiBiT tag associating with the LgBiT protein as a proxy for the PARP14 protein.
Jurkat cells were diluted to 250,000 cells per mL and then added to assay plate (Corning 3574) using a Multidrop (Thermo Fisher) to add 20 μL per well of the 384 well plate, resulting in 5,000 cells per well. 20 nL of a dose response curve diluted in DMSO of each test compound was added to the cell plate using a Mosquito (TTP Labtech) and the plate was incubated at 37° C. for 2 or 24 hours. Assay plate was brought to room temperature then 5 μL per well of Live Cell Substrate (Promega) was added to the plate. Luminescence was measured on an Envision (Perkin Elmer).
The average DMSO was calculated from 32 wells containing 0.1% DMSO only in columns 12 and 24 of the assay plate. The % of DMSO values were calculated as described below: […]
The % of DMSO values were plotted as a function of compound concentration and the following 4-parameter fit was applied to derive the DC50 values:
where top, bottom, and Hill Coefficient are allowed to float. Y is the % of DMSO and X is the compound concentration.
DC50 data for the Example compounds is provided below in Table 2 (“+” is ≤0.03 μM; “++” is ≥0.03 μM).
Background: With HiBiT, luminescence reflects the tagged protein that the partner subunit can reach.
Regarding `O=C1CCC(Nc2ccc(N3CCN(CCN4CCC(COc5cc(F)c6c(=O)[nH]c(COC7CCOCC7)nc6c5)CC4)CC3)c(F)c2)C(=O)N1` (racemic) [Example 99, 3-((3-fluoro-4-(4-(2-(4-(((5-fluoro-4-oxo-2-(((tetrahydro-2H-pyran-4-yl)oxy)methyl)-3,4-dihydroquinazolin-7-yl)oxy)methyl)piperidin-1-yl)ethyl)piperazin-1-yl)phenyl)amino)piperidine-2,6-dione], the DC50 (usually the concentration giving 50% degradation) is below 30 nM.

Still in this assay, the particulars now being: Assay B (Example B): HiBiT tagged PARP14 degradation in LgBiT expressing Jurkat cells, read-out: DC50.
Regarding `O=C1CCC(Nc2ccc(N3CCN(CCN4CCC(COc5cc(F)c6c(=O)[nH]c(CSC7CCOCC7)nc6c5)CC4)CC3)c(F)c2)C(=O)N1` (single isomer, unassigned) [Example 64b, 3-((3-fluoro-4-(4-(2-(4-(((5-fluoro-4-oxo-2-(((tetrahydro-2H-pyran-4-yl)thio)methyl)-3,4-dihydroquinazolin-7-yl)oxy)methyl)piperidin-1-yl)ethyl)piperazin-1-yl)phenyl)amino)piperidine-2,6-dione], the DC50 is below 30 nM.
On to `O=C1CCC(Nc2ccc(N3CC(N4CCN(CCOc5cc(F)c6c(=O)[nH]c(CSC7CCOCC7)nc6c5)CC4)C3)cc2)C(=O)N1` (stereo not drawn) [Example 130, 3-((4-(3-(4-(2-((5-fluoro-4-oxo-2-(((tetrahydro-2H-pyran-4-yl)thio)methyl)-3,4-dihydroquinazolin-7-yl)oxy)ethyl)piperazin-1-yl)azetidin-1-yl)phenyl)amino)piperidine-2,6-dione], for which the DC50 is below 30 nM.
The same measure, in the same setting: then `Cn1nc(N2CCC(=O)NC2=O)c2cc(F)c(N3CCC(N4CCC(COc5cc(F)c6c(=O)[nH]c(COC7CCOCC7)nc6c5)CC4)CC3)cc21` [Example 160, 1-(5-fluoro-6-(4-(((5-fluoro-4-oxo-2-(((tetrahydro-2H-pyran-4-yl)oxy)methyl)-3,4-dihydroquinazolin-7-yl)oxy)methyl)-[1,4′-bipiperidin]-1′-yl)-1-methyl-1H-indazol-3-yl)dihydropyrimidine-2,4(1H,3H)-dione], with below 30 nM; and `Cn1nc(N2CCC(=O)NC2=O)c2cc(F)c(N3CCC(N4CC(N5CCC(COc6cc(F)c7c(=O)[nH]c(CSC8CCOCC8)nc7c6)CC5)C4)CC3)cc21` [Example 164, 1-(5-fluoro-6-(4-(3-(4-(((5-fluoro-4-oxo-2-(((tetrahydro-2H-pyran-4-yl)thio)methyl)-3,4-dihydroquinazolin-7-yl)oxy)methyl)piperidin-1-yl)azetidin-1-yl)piperidin-1-yl)-1-methyl-1H-indazol-3-yl)dihydropyrimidine-2,4(1H,3H)-dione], with below 30 nM; and `O=C1CCC(Nc2ccc(N3CCC(N4CC(N5CCC(COc6cc(F)c7c(=O)[nH]c(CSC8CCOCC8)nc7c6)CC5)C4)CC3)cc2F)C(=O)N1` (stereo not drawn) [Example 221, 3-((2-fluoro-4-(4-(3-(4-(((5-fluoro-4-oxo-2-(((tetrahydro-2H-pyran-4-yl)thio)methyl)-3,4-dihydroquinazolin-7-yl)oxy)methyl)piperidin-1-yl)azetidin-1-yl)piperidin-1-yl)phenyl)amino)piperidine-2,6-dione formate], with below 30 nM.
On to `Cn1nc(N2CCC(=O)NC2=O)c2cccc(C3CCN(CCN4CCC(COc5cc(F)c6c(=O)[nH]c(COC7CCOCC7)nc6c5)CC4)CC3)c21` [Example 203, 1-(7-(1-(2-(4-(((5-fluoro-4-oxo-2-(((tetrahydro-2H-pyran-4-yl)oxy)methyl)-3,4-dihydroquinazolin-7-yl)oxy)methyl)piperidin-1-yl)ethyl)piperidin-4-yl)-1-methyl-1H-indazol-3-yl)dihydropyrimidine-2,4(1H,3H)-dione], for which the DC50 is below 30 nM.
The same measure, in the same setting: then `O=C1CCN(c2cnc3cc(C4CCN(CCN5CCC(COc6cc(F)c7c(=O)[nH]c(CSC8CCOCC8)nc7c6)CC5)CC4)ccn23)C(=O)N1` [Example 211, 1-(7-(1-(2-(4-(((5-fluoro-4-oxo-2-(((tetrahydro-2H-pyran-4-yl)thio)methyl)-3,4-dihydroquinazolin-7-yl)oxy)methyl)piperidin-1-yl)ethyl)piperidin-4-yl)imidazo[1,2-a]pyridin-3-yl)dihydropyrimidine-2,4(1H,3H)-dione], with below 30 nM.
Regarding `O=C1CCC(Nc2ccc(N3CCN(CCN4CC(COc5cc(F)c6c(=O)[nH]c(CSC7CCOCC7)nc6c5)C4)CC3)c(F)c2)C(=O)N1` (stereo not drawn) [Example 193, 3-((3-fluoro-4-(4-(2-(3-(((5-fluoro-4-oxo-2-(((tetrahydro-2H-pyran-4-yl)thio)methyl)-3,4-dihydroquinazolin-7-yl)oxy)methyl)azetidin-1-yl)ethyl)piperazin-1-yl)phenyl)amino)piperidine-2,6-dione], the DC50 is below 30 nM.
Consider `Cn1nc(N2CCC(=O)NC2=O)c2ccc(C3CCN(C4CCN(CCOc5cc(F)c6c(=O)[nH]c(CSC7CCOCC7)nc6c5)CC4)CC3)cc21` [Example 187, 1-(6-(1′-(2-((5-fluoro-4-oxo-2-(((tetrahydro-2H-pyran-4-yl)thio)methyl)-3,4-dihydroquinazolin-7-yl)oxy)ethyl)-[1,4′-bipiperidin]-4-yl)-1-methyl-1H-indazol-3-yl)dihydropyrimidine-2,4(1H,3H)-dione diformate], for which the DC50 was below 30 nM.
With `O=C1CCC(Nc2ccc(N3CC(N4CCC(N5CCC(COc6cc(F)c7c(=O)[nH]c(CSC8CCOCC8)nc7c6)CC5)CC4)C3)c(F)c2)C(=O)N1` (stereo not drawn) [Example 145], the DC50 is below 30 nM.
Take `O=C1CCN(c2ccc(N3CCN(CCN4CCC(COc5cc(F)c6c(=O)[nH]c(CSC7CCOCC7)nc6c5)CC4)CC3)c(F)c2)C(=O)N1` [Example 196, 1-(3-fluoro-4-(4-(2-(4-(((5-fluoro-4-oxo-2-(((tetrahydro-2H-pyran-4-yl)thio)methyl)-3,4-dihydroquinazolin-7-yl)oxy)methyl)piperidin-1-yl)ethyl)piperazin-1-yl)phenyl)dihydropyrimidine-2,4(1H,3H)-dione]: the DC50 is below 30 nM.
With `O=C1CCC(Nc2ccc(N3CCC(C(=O)N4CCC(COc5cc(F)c6c(=O)[nH]c(CSC7CCOCC7)nc6c5)CC4)CC3)c(F)c2)C(=O)N1` (stereo not drawn) [Example 153, 3-((3-fluoro-4-(4-(4-(((5-fluoro-4-oxo-2-(((tetrahydro-2H-pyran-4-yl)thio)methyl)-3,4-dihydroquinazolin-7-yl)oxy)methyl)piperidine-1-carbonyl)piperidin-1-yl)phenyl)amino)piperidine-2,6-dione], the DC50 was below 30 nM.
Take `COc1cc(N2CCC(N3CC(N4CCC(COc5cc(F)c6c(=O)[nH]c(CSC7CCOCC7)nc6c5)CC4)C3)CC2)c(F)cc1N1CCC(=O)NC1=O` [Example 166, 1-(5-fluoro-4-(4-(3-(4-(((5-fluoro-4-oxo-2-(((tetrahydro-2H-pyran-4-yl)thio)methyl)-3,4-dihydroquinazolin-7-yl)oxy)methyl)piperidin-1-yl)azetidin-1-yl)piperidin-1-yl)-2-methoxyphenyl)dihydropyrimidine-2,4(1H,3H)-dione]: the DC50 is below 30 nM.
In the case of `O=C1CCC(NC(=O)c2ccc(N3CCN(CCN4CCC(COc5cc(F)c6c(=O)[nH]c(CSC7CCOCC7)nc6c5)CC4)CC3)cc2F)C(=O)N1` (stereo not drawn) [Example 93, N-(2,6-dioxopiperidin-3-yl)-2-fluoro-4-(4-(2-(4-(((5-fluoro-4-oxo-2-(((tetrahydro-2H-pyran-4-yl)thio)methyl)-3,4-dihydroquinazolin-7-yl)oxy)methyl)piperidin-1-yl)ethyl)piperazin-1-yl)benzamide], the DC50 was below 30 nM.
Turning to `O=C1CCC(Nc2ccc(NC3CC(CN4CCC(COc5cc(F)c6c(=O)[nH]c(CSC7CCOCC7)nc6c5)CC4)C3)c(F)c2)C(=O)N1` (stereo not drawn) [Example 150, 3-((3-fluoro-4-((3-((4-(((5-fluoro-4-oxo-2-(((tetrahydro-2H-pyran-4-yl)thio)methyl)-3,4-dihydroquinazolin-7-yl)oxy)methyl)piperidin-1-yl)methyl)cyclobutyl)amino)phenyl)amino)piperidine-2,6-dione formate], the half-maximal degradation concentration (DC50) is below 30 nM.
Turning to `O=C1CCC(Nc2ccc(N3CCC(N4CCC(C(=O)N5CCC(COc6cc(F)c7c(=O)[nH]c(CSC8CCOCC8)nc7c6)CC5)CC4)CC3)c(F)c2)C(=O)N1` (stereo not drawn) [Example 225, 3-((3-fluoro-4-(4-(4-(((5-fluoro-4-oxo-2-(((tetrahydro-2H-pyran-4-yl)thio)methyl)-3,4-dihydroquinazolin-7-yl)oxy)methyl)piperidine-1-carbonyl)-[1,4′-bipiperidin]-1′-yl)phenyl)amino)piperidine-2,6-dione], the DC50 is below 30 nM.
On to `Cn1nc(N2CCC(=O)NC2=O)c2cccc(N3CCN(CCN4CCC(COc5cc(F)c6c(=O)[nH]c(CSC7CCOCC7)nc6c5)CC4)CC3)c21` [Example 101, 1-(7-(4-(2-(4-(((5-fluoro-4-oxo-2-(((tetrahydro-2H-pyran-4-yl)thio)methyl)-3,4-dihydroquinazolin-7-yl)oxy)methyl)piperidin-1-yl)ethyl)piperazin-1-yl)-1-methyl-1H-indazol-3-yl)dihydropyrimidine-2,4(1H,3H)-dione], for which the DC50 is below 30 nM.
